Laboratory results reported in paper PMC4986129, “A Peroxidase-linked Spectrophotometric Assay for the Detection of Monoamine Oxidase Inhibitors” (Iranian Journal of Pharmaceutical Research : IJPR, 2016).

Target: T1, MAO-B (Rattus norvegicus, UniProt P19643)
T1 construct: gene Maob
T1 sequence (P19643 2-520): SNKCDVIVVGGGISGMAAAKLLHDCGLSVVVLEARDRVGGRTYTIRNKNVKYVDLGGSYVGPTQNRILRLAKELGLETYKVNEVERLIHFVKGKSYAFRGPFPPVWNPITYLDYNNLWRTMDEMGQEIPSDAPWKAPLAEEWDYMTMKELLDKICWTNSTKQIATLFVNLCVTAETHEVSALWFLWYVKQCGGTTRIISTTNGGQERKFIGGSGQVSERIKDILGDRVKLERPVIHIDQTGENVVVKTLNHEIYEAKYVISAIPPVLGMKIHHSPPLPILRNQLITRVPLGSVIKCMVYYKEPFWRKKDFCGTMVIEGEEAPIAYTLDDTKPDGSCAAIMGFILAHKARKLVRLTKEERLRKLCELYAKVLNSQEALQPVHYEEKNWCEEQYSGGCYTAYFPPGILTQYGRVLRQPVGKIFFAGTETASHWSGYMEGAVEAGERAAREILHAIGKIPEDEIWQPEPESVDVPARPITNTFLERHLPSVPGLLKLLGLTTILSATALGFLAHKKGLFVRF
Assay: peroxidase-linked spectrophotometric assay, crude rat liver mitochondria with MAO-A blocked by clorgyline
Type: biochemical

## C#CCN(C)Cc1ccccc1 [pargyline]
  IC50: 13.4 ± 0.16 nM
